13 molecules from publication PMC9071491, “Fragment screening and structural analyses highlight the ATP-assisted ligand binding for inhibitor discovery against type 1 methionyl-tRNA synthetase” (Nucleic Acids Research, 2022) can be followed below.

The target in assay [1] is T1, SaMetRS (Staphylococcus aureus, UniProt P67578).
T1 construct: full-length SaMetRS (SaMetRS-FL) (residues 1–657) was expressed and purified in the same manner; made in house; host or cells: E. coli BL21 (DE3)
Nature of the assay: biochemical. The assay is classed as binding. The procedure: Ligand binding usually stabilizes the protein during the thermal denaturation process, and a tighter binder causes a larger positive shift in the protein melting temperature (Tm) ([38]). The binding of ligands to SaMetRS was evaluated by the fluorescence-based thermal shift assay as described ([39]). Briefly, mixtures with a final volume of 20 μl that contained 4 μg of SaMetRS-FL, 4 × SYPRO orange fluorescence dye (Sigma-Aldrich) and different ligands (10 μM REP8839, 5 mM L-Met, 5 mM ATP, or 1 mM fragments) in TSA buffer (100 mM Tris pH 8.0, 150 mM NaCl) were prepared in 96-well plates. The mixtures were incubated at 25°C for 10 min and then heated from 25°C to 95°C at a rate of 1°C/min. The fluorescence intensity was recorded every 20 s by using a StepOnePlus Real-Time PCR instrument (Life Technologies). The melting curves, using the fluorescence signal as the ordinate and the temperature as the abscissa, were fitted by using StepOne™ software v2.3 to obtain the melting temperature (Tm) of the protein. Triplicate assays were performed, and the average Tm values were used. The thermal stabilization of SaMetRS that was caused by a ligand (a fragment, substrate or inhibitor) was termed ΔTm, and it was calculated by subtracting the Tm of SaMetRS without the ligand from the Tm of SaMetRS supplemented with the ligand as follows:
Fragment screening is a fast-growing strategy for designing drugs with novel scaffolds as well as for identifying new druggable sites ([51],[52]). A total of 1049 fragments or low molecular weight natural products were screened by using TSA to search for new binders to SaMetRS. Considering the potential beneficial effect of ATP on ligand binding to SaMetRS, a parallel experiment was carried out using SaMetRS, which was saturated with 5 mM ATP. Fragments were diluted to a final concentration of 1.0 mM. The Tm of apo or ATP-bound SaMetRS without adding fragments was used as a blank control, and REP8839 was used as a positive control. We considered fragments that could increase the Tm value of SaMetRS by more than 1.0°C (ΔTm > 1.0°C) as positive hits (Figure 4B).

Assay [2] concerns the target T1, SaMetRS. The assay is described as follows: pretransfer editing assay (malachite green). Type of assay: biochemical. The procedure:
A pretransfer editing assay was employed to evaluate the enzymatic activity of MetRS and the inhibitory activity of fragments to this enzyme. MetRS uses ATP to misactivate the noncognate L-norleucine (L-Norleu) to produce norleucyl adenylate and pyrophosphate (PPi). Norleucyl adenylate was hydrolyzed in the active site through pretransfer editing, and PPi was hydrolyzed by pyrophosphatase (PPiase). The pretransfer editing activity of MetRS was evaluated by measuring phosphate ion (Pi) production using a malachite green assay ([40],[41]). The assays were performed in 80 μl reaction mixtures consisting of 160 nM SaMetRS-FL or SaMetRS-dC or HcMetRS-dN or HcMetRS-dN/C, 100 μM ATP, 20 mM L-Norleu and 50 μg/ml PPiase in reaction buffer (30 mM HEPES pH 7.5, 150 mM NaCl, 30 mM KCl, 40 mM MgCl2, 1 mM DTT) at room temperature ([42]). The pyrophosphates released from the pretransfer editing reaction were decomposed into phosphates by PPiase. Then, 20 μl of malachite green reagent (2.45 M sulfuric acid, 0.1% w/v malachite green, 1.5% w/v ammonium molybdate tetrahydrate, and 0.2% v/v Tween 20) was added to each reaction, and the absorbance at 620 nm was recorded using a Synergy H1 microplate reader.
To measure the inhibitory activity of compounds against SaMetRS, the reactions of an 80 μl mixture consisting of 160 nM SaMetRS-FL (or HcMetRS-dN), 100 μM ATP, 20 mM L-norleucine, 50 μg/ml PPiase and 1 mM fragment (or inhibitor at different concentrations) in reaction buffer were incubated at room temperature for 30 min. Then, 20 μl of malachite green reagent was added to each reaction, and absorbance at 620 nm was recorded. The absorbance at 620 nm of the reaction without adding a compound (fragment or inhibitor) was A1, the absorbance of the reaction without adding MetRS was A0, and the absorbance of the reaction with adding a compound (fragment or inhibitor) was AC. The inhibitory rates of compounds on enzyme activity = (A1 – AC)/(A1 – A0) ×100%. For compounds P80, P21 and REP8839, the inhibitory rates were measured at various concentrations, and the data were fitted in GraphPad Prism 8 using the ‘log[inhibitor] versus response’ equation to calculate the IC50 values.
The inhibitory rates of these fragments against SaMetRS were then tested by a pretransfer editing assay. In the assay, MetRS used ATP to misactivate noncognate L-norleucine (L-Norleu) to produce norleucyl adenylate and PPi. The norleucyl adenylate was then quickly hydrolyzed (or ‘edited’) by MetRS in a tRNA-independent manner ([53–55]). In addition, PPi is hydrolyzed by pyrophosphatase, and phosphate production reflects the activity of MetRS in L-Norleu misactivation and pretransfer editing.

Assay [3] addresses T1, SaMetRS. The assay is described as follows: isothermal titration calorimetry (ITC) assay. Type of assay: binding. The procedure:
The affinities of ligands to SaMetRS were measured by using a MicroCal PEAQ-ITC microcalorimeter. […] The interval between two injections was 150 s. The disassociation constants (Kd) were determined by fitting the calorimetric data to a one-site binding model by using MicroCal PEAQ-ITC analysis software.

A further assay concerns the target T2, HcMetRS (Homo sapiens, UniProt P56192).
T2 construct: a truncated HcMetRS without the N-terminal part (HcMetRS-dN) (residues 221–900); His6-SUMO (N, cleaved yes); made in house; host or cells: E. coli BL21 (DE3)
T2 sequence (P56192 221-900): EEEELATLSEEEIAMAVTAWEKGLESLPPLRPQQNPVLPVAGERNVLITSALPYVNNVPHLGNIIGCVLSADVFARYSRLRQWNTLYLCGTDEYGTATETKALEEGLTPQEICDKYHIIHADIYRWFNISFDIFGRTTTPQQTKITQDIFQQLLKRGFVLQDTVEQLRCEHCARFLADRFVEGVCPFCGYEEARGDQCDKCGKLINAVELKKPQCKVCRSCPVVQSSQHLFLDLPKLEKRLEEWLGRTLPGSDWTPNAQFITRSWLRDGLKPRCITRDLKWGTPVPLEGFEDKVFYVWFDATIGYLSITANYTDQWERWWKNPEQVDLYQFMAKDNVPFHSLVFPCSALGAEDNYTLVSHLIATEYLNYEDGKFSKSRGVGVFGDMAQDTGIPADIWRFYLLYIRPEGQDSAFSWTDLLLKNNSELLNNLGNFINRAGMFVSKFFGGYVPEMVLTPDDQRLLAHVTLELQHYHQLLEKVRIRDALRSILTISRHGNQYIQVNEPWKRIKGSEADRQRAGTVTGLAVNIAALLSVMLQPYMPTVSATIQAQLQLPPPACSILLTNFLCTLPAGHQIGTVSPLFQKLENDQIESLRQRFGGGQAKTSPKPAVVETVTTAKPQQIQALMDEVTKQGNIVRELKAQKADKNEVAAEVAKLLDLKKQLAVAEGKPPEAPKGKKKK
The assay is described as follows: tRNA-dependent ATP consumption assay. Type of assay: biochemical. Particulars: HcMetRS-dN, even at high concentrations. As for the experimental part:
(§1) The inhibitory activity of the compounds against the tRNA aminoacylation reaction of MetRS was evaluated by employing an ATP consumption assay ([43],[44]). In brief, 10 μl reactions consisting of 50 nM SaMetRS-FL or 100 nM HcMetRS-dN, 4 μM ATP, 500 μM L-Met, 0.5 mg/ml E. coli total tRNA in reaction buffer (30 mM HEPES pH 7.5, 150 mM NaCl, 30 mM KCl, 40 mM MgCl2, 0.1% BSA and 1 mM DTT) and compounds (P80, P21 and REP8839) at various concentrations were prepared and incubated at room temperature for 30 min. The reactions were then stopped by adding 10 μl of Kinase-Glo™ Reagent (Promega) and incubated at room temperature for 15 min. The luminescence, which reflects the concentration of the remaining ATP, was read on a Synergy H1 microplate reader (BioTek). The luminescence of the reaction without adding a compound was Lum1, the absorbance of the reaction without adding MetRS was Lum0, and the luminescence of the reaction with the added compound was LumC. The inhibitory rates of a compound on enzyme activity = (LumC – Lum1)/(Lum0 – Lum1) × 100%. The data were fitted in GraphPad Prism 8 with the ‘log[compound] versus response’ equation to calculate the IC50 values.

Assay [4] deals with T1, SaMetRS. Nature of the assay: tRNA-dependent ATP consumption assay. The assay is classed as biochemical. As for the experimental part:
as §1

Setting [5] is: read-out: ΔTm (°C) Tm(Frg)-Tm(apo).
Where [6] appears, read: read-out: ΔTm (°C) Tm(Frg+ATP)-Tm(ATP).

Like-named read-outs stand apart in the source and are kept apart here.

T1 sequence (P67578 whole entry, the tested form may be a part): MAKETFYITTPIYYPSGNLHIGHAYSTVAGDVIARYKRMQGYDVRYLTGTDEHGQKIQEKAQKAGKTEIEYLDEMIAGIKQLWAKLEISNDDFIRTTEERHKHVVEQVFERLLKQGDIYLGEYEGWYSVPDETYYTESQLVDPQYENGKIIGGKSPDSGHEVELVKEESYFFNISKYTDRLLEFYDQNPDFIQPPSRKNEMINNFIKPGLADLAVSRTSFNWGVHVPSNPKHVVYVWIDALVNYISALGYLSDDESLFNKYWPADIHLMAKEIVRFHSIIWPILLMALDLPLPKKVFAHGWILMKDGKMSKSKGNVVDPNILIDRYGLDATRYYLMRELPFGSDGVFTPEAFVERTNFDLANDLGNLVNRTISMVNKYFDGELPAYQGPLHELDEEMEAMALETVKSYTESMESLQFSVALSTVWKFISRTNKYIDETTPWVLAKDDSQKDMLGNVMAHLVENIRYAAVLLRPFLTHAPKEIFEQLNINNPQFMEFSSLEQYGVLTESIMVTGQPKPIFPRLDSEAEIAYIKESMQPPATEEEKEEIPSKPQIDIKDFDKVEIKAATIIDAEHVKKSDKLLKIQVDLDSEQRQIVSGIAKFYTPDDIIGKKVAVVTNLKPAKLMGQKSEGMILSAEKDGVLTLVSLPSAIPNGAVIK

As to `O=[N+]([O-])c1ccc(O)c(O)c1` [A6], the ΔTm at 1000 µM on SaMetRS [1] (setting [5]) was 1.1 °C; on SaMetRS [1] (setting [6]) it was 1.2 °C. Besides, the inhibition at 1000 µM on SaMetRS [2] (read-out: Inhibitory rate (%)) is less than 20%.
Regarding `Nc1ncnc2c1ncn2[C@@H]1O[C@H](COP(=O)(O)OP(=O)(O)OP(=O)(O)O)[C@@H](O)[C@H]1O` [ATP], the “fold more potent Kd of ATP with M3-88 premixed versus apo protein” value at SaMetRS [3] (SaMetRS premixed with M3-88 vs apo) is “approximately 4 fold”. Also, the Kd on SaMetRS [3] (apo protein, 25°C, read-out: Kd, ATP to SaMetRS) came to 52 ± 6.7 µM; at SaMetRS [3] (read-out: Kd, ATP to SaMetRS saturated with M3-88, SaMetRS preincubated with 5 mM M3-88, 25°C), 14.1 ± 0.7 µM.
Consider `N[C@@H]1C[C@@H]1c1ccccc1` [B54], for which the inhibition at 1000 µM at SaMetRS [2] (read-out: Inhibitory rate (%)) is less than 20%.
Take `NCc1c[nH]c2ccccc12` [B63]: the ΔTm at 1000 µM on SaMetRS [1] (setting [5]) was 0.8 °C; on SaMetRS [1] (setting [6]), 1.7 °C. At SaMetRS [2] (read-out: Inhibitory rate (%)), the inhibition at 1000 µM is 38.2 ± 3.5%.
In the same order, the values of `O=[N+]([O-])c1ccc2[nH]ncc2c1` [B128] are 1.3 °C, 2.1 °C and 30.4 ± 1.9%.
Taken in the same sequence, the figures for `Nc1nc2ccccc2[nH]1` [M1-68] were 0.1 °C, 1.3 °C and less than 20%.
For `NC1Cc2ccccc2C1` [M2-80], the ΔTm at 1000 µM on SaMetRS [1] (setting [5]) was -0.1 °C; at SaMetRS [1] (setting [6]) it was 2.5 °C. On SaMetRS [2] (read-out: Inhibitory rate (%)), the inhibition at 1000 µM was less than 20%.
Take `NCCNc1cccc2ccccc12` [M2-293]: the ΔTm at 1000 µM at SaMetRS [1] (setting [6]) is 1.3 °C. On SaMetRS [2] (read-out: Inhibitory rate (%)), the inhibition at 1000 µM was found to be 67.3 ± 1.1%.
With `Clc1cn2ccsc2n1` [M3-146], the ΔTm at 1000 µM on SaMetRS [1] (setting [5]) was -0.1 °C; on SaMetRS [1] (setting [6]), 1.8 °C. Also, the inhibition at 1000 µM on SaMetRS [2] (read-out: Inhibitory rate (%)) is less than 20%.
Take `CNC(=O)c1ccc2c(c1)nc(-c1ccc(Br)c(O)c1)n2C(CNC(=O)OCc1ccccc1)c1ccc(OC)c(OC)c1` (centres unmarked) [P21]: the IC50 on SaMetRS [2] is 0.428 ± 0.053 µM; on SaMetRS [4] (50 nM SaMetRS-FL, 4 μM ATP, 500 μM L-Met, read-out: IC50, ATP consumption assay) it was 3.11 ± 0.48 µM. The “inhibition of HcMetRS” value on HcMetRS was “did not significantly inhibit”.
For the molecule `CNC(=O)c1ccc2c(c1)nc(-c1ccc(Br)c(O)c1)n2C(CNC(=O)COc1ccccc1C(C)(C)C)c1ccc(OC)c(OC)c1` (centres unmarked) [P80], the IC50 on SaMetRS [2] came out at 0.0946 ± 0.0067 µM; on SaMetRS [4], 0.223 ± 0.0123 µM. Also, the “inhibition of HcMetRS” value at HcMetRS is on record as “did not significantly inhibit”.
For the molecule `C=C(F)c1sc(CNCCCNc2cc(O)c3ccccc3n2)c(C)c1Br` [REP8839, reference compound], the ΔTm at 10 µM was 11.8 °C on SaMetRS [1] (setting [5]) and 17.5 °C at SaMetRS [1] (setting [6]). The inhibition at 10 µM on SaMetRS [2] (read-out: Inhibitory rate (%)) was greater than 99%.
Regarding `CC(C)(C)Sc1cccnc1N` [T2-15], the ΔTm at 1000 µM at SaMetRS [1] (setting [5]) and on SaMetRS [1] (setting [6]) was 2.5 °C each time. For the same molecule, at SaMetRS [2] (read-out: Inhibitory rate (%)), the inhibition at 1000 µM amounted to 65.3 ± 3.1%. In addition, the Kd stood at 78.7 ± 7.1 µM on SaMetRS [3] (SaMetRS apo, without ATP, 25°C, read-out: Kd, fragment to SaMetRS alone) and 54.6 ± 2.6 µM at SaMetRS [3] (SaMetRS preincubated with 5 mM ATP, 25°C, read-out: Kd, fragment to SaMetRS saturated with ATP).
